Results: patent US9834542B2, “LXR modulators” (BRISTOL-MYERS SQUIBB COMPANY, priority 2013, dated 2017)

Biological target: T1, LXRβ (Homo sapiens, UniProt P55055)
T1 construct: Co-transfection expression plasmids, comprising full-length LXRα (pCMX-h LXRα[…] or LXRβ (pCMX-hLXRβ)); expressed in transfected cells; host or cells: CV-1 African Green Monkey Kidney Cells
T1 sequence (P55055 1-460): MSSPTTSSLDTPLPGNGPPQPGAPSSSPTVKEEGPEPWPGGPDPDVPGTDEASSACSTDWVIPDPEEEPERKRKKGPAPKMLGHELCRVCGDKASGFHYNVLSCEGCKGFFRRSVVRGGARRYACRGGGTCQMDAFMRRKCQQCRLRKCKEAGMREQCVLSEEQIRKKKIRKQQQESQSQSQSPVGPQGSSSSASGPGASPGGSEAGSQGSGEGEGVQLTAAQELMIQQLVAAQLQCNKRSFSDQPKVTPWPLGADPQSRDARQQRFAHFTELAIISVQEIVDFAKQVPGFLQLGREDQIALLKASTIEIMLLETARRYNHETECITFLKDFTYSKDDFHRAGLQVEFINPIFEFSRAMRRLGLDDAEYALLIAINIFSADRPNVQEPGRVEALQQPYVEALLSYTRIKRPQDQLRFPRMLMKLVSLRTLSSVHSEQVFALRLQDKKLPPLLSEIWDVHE
T1 sequence (P19793 1-462 partner): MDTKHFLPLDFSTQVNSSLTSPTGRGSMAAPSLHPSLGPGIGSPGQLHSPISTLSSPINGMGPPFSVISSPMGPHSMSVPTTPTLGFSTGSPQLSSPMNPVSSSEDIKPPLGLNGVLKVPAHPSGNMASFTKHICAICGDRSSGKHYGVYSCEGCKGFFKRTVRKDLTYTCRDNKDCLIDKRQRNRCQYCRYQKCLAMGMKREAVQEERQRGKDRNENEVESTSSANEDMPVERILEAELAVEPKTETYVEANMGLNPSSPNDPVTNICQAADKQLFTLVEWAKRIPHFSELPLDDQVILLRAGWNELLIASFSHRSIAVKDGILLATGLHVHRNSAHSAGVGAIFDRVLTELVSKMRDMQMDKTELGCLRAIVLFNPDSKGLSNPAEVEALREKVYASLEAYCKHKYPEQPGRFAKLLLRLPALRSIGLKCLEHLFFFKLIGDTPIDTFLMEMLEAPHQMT
Assay: Co-transfection assay (LXRE luciferase reporter), LXRβ
Type: cell-based
Conditions: for EC50: CV-1 cells transfected with pCMX-hLXRβ and LXREx1-Tk-Luciferase, 20 hours incubation; for Emax: LXRβ co-transfection, relative to high control 1-(2,4-difluorobenzyl)-2-oxo-6-(4-phenoxyphenyl)-4-(trifluoromethyl)-1,2-dihydropyridine-3-carbonitrile, read-out: % Efficacy
Outline: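 Luciferase signal from an LXREx1-Tk reporter was measured after transfected CV-1 cells (full-length hLXRβ, endogenous RXR) were treated with compounds for 20 h at 37 °C, ≤0.5% DMSO. EC50 came from four-parameter fits of 11-point ½-log curves; % efficacy versus a reference agonist maximum.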

SMILES	EC50	Emax
Cc1nc(C(F)(F)F)cn1-c1ccc(-c2cccc(S(C)(=O)=O)c2)cc1-n1nncc1-c1ccc(OC(F)(F)F)cc1 [Example 49, 1-{3′-(methylsulfonyl)-4-[2-methyl-4-(trifluoromethyl)-1H-imidazol-1-yl]biphenyl-3-yl}-5-{4-[(trifluoromethyl)oxy]phenyl}-1H-1,2,3-triazole]	164 nM	105%
Cc1nc(-c2ccc(Cl)cc2Cl)c(-c2cc(-c3cccc(S(C)(=O)=O)c3)ccc2-n2cc(C(F)(F)F)nc2C)o1 [Example 608, 4-(2,4-dichlorophenyl)-2-methyl-5-(4-(2-methyl-4-(trifluoromethyl)-1H-imidazol-1-yl)-3′-(methylsulfonyl)-[1,1′-biphenyl]-3-yl)oxazole]	90 nM	100%
Cc1nc(-c2cc(-c3cc(F)c(CO)c(S(C)(=O)=O)c3)ccc2-n2cc(C(F)(F)F)nc2C)c(-c2ccc(OC3CCCC3)nc2)o1 [Example 411, (3′-(5-(6-(cyclopentyloxy)pyridin-3-yl)-2-methyloxazol-4-yl)-3-fluoro-4′-(2-methyl-4-(trifluoromethyl)-1H-imidazol-1-yl)-5-(methylsulfonyl)biphenyl-4-yl)methanol]	255 nM	60%
Cc1nc(C(F)(F)F)cn1-c1ccc(-c2cc(F)c(CO)c(S(C)(=O)=O)c2)cc1-c1ocnc1-c1ccc(Cl)cc1 [Example 355, {3′-[4-(4-chlorophenyl)-1,3-oxazol-5-yl]-3-fluoro-5-(methylsulfonyl)-4′-[2-methyl-4-(trifluoromethyl)-1H-imidazol-1-yl]biphenyl-4-yl}methanol]	105 nM	98%
Cc1nc(C(F)(F)F)cn1-c1ccc(-c2cccc(S(C)(=O)=O)c2)cc1-c1ocnc1-c1ccc(Cl)cc1 [Example 360, 4-(4-chlorophenyl)-5-{3′-(methylsulfonyl)-4-[2-methyl-4-(trifluoromethyl)-1H-imidazol-1-yl]biphenyl-3-yl}-1,3-oxazole]	170 nM	93%
Cc1nc(-c2cc(-c3cccc(S(C)(=O)=O)c3)ccc2-n2cc(C(F)(F)F)nc2C)c(-c2ccc(OCC3CC3)c(F)c2)o1 [Example 404, 5-(4-(cyclopropylmethoxy)-3-fluorophenyl)-2-methyl-4-(4-(2-methyl-4-(trifluoromethyl)-1H-imidazol-1-yl)-3′-(methylsulfonyl)biphenyl-3-yl)oxazole]	159 nM	69%
Cc1nc(-c2ccc3c(c2)OC(F)(F)O3)c(-c2cc(-c3cccc(S(C)(=O)=O)c3)ccc2-n2cc(C(F)(F)F)nc2C)o1 [Example 615, 4-(2,2-difluorobenzo[d][1,3]dioxol-5-yl)-2-methyl-5-(4-(2-methyl-4-(trifluoromethyl)-1H-imidazol-1-yl)-3′-(methylsulfonyl)-[1,1′-biphenyl]-3-yl)oxazol]	31 nM	96%
Cc1nc(C(F)F)cn1-c1ccc(-c2cccc(S(C)(=O)=O)c2)cc1-n1nncc1C(C)c1ccc(Cl)cc1 (stereo not shown) [Example 133, 5-[1-(4-chlorophenyl)ethyl]-1-{4-[4-(difluoromethyl)-2-methyl-1H-imidazol-1-yl]-3′-(methylsulfonyl)biphenyl-3-yl}-1H-1,2,3-triazole]	256 nM	71%
Cc1ccc(Cc2cnnn2-c2cc(-c3cccc(S(C)(=O)=O)c3)ccc2-n2cc(C(F)(F)F)nc2C)cc1 [Example 126, 5-[(4-methylphenyl)methyl]-1-{3′-(methylsulfonyl)-4-[2-methyl-4-(trifluoromethyl)-1H-imidazol-1-yl]biphenyl-3-yl}-1H-1,2,3-triazole]	270 nM	93%
Cc1nc(C(F)(F)F)cn1-c1ccc(-c2cccc(S(C)(=O)=O)c2)cc1-n1nncc1C(=O)c1ccc(Cl)cc1 [Example 10, (4-chlorophenyl)(1-{3′-(methylsulfonyl)-4-[2-methyl-4-(trifluoromethyl)-1H-imidazol-1-yl]biphenyl-3-yl}-1H-1,2,3-triazol-5-yl)methanone]	541 nM	62%
Cc1nc(C(F)(F)F)cn1-c1cc(F)c(-c2cccc(S(C)(=O)=O)c2)cc1-n1nncc1-c1ccc(Cl)cc1 [Example 100, 5-(4-chlorophenyl)-1-{6-fluoro-3′-(methylsulfonyl)-4-[2-methyl-4-(trifluoromethyl)-1H-imidazol-1-yl]biphenyl-3-yl}-1H-1,2,3-triazole]	1110 nM	97%
Cc1nc(-c2cc(-c3cccc(S(C)(=O)=O)c3)ccc2-n2cc(C(F)(F)F)nc2C)c(-c2ccc3c(c2)CCC3)o1 [Example 474, 5-(2,3-dihydro-1H-inden-5-yl)-2-methyl-4-(4-(2-methyl-4-(trifluoromethyl)-1H-imidazol-1-yl)-3′-(methylsulfonyl)biphenyl-3-yl)oxazole]	119 nM	53%
CS(=O)(=O)c1cccc(-c2cc(F)c(-n3cnc(C(F)(F)F)c3)c(-n3nncc3-c3ccc(OC(F)(F)F)cc3)c2)c1 [Example 188, 1-{5-fluoro-3′-(methylsulfonyl)-4-[4-(trifluoromethyl)-1H-imidazol-1-yl]biphenyl-3-yl}-5-{4-[(trifluoromethyl)oxy]phenyl}-1H-1,2,3-triazole]	1750 nM	89%
Cc1nc(-c2cc(-c3cc(F)c(CO)c(S(C)(=O)=O)c3)ccc2-n2cc(C(F)(F)F)nc2C)c(-c2ccc(OCC(F)F)c(F)c2)o1 [Example 426, (3′-(5-(4-(2,2-difluoroethoxy)-3-fluorophenyl)-2-methyloxazol-4-yl)-3-fluoro-4′-(2-methyl-4-(trifluoromethyl)-1H-imidazol-1-yl)-5-(methylsulfonyl)biphenyl-4-yl)methanol]	118 nM	92%

Next, values leading:

EC50	Emax	SMILES
67 nM	102%	Cc1nc(-c2cc(-c3ccc(CCO)c(S(C)(=O)=O)c3)ccc2-n2cc(C(F)(F)F)nc2C)c(-c2ccc(OC(F)(F)F)cc2)o1 [Example 523, 2-(4′-(2-methyl-4-(trifluoromethyl)-1H-imidazol-1-yl)-3′-(2-methyl-5-(4-(trifluoromethoxy)phenyl)oxazol-4-yl)-3-(methylsulfonyl)-[1,1′-biphenyl]-4-yl)ethanol]
517 nM	64%	Cc1nc(C(F)(F)F)cn1-c1ccc(-c2cc(F)c(CO)c(S(C)(=O)=O)c2)cc1-c1oc(CCO)nc1-c1ccc(OC(F)(F)F)cc1 [Example 612, 2-(5-(3′-fluoro-4′-(hydroxymethyl)-4-(2-methyl-4-(trifluoromethyl)-1H-imidazol-1-yl)-5′-(methylsulfonyl)-[1,1′-biphenyl]-3-yl)-4-(4-(trifluoromethoxy)phenyl)oxazol-2-yl)ethanol]
216 nM	102%	Cc1nc(C(F)F)cn1-c1ccc(-c2cccc(S(C)(=O)=O)c2)cc1-c1cnnn1Cc1ccc(Cl)cc1 [Example 245, 1-(4-chlorobenzyl)-5-(4-(4-(difluoromethyl)-2-methyl-1H-imidazol-1-yl)-3′-(methylsulfonyl)-[1,1′-biphenyl]-3-yl)-1H-1,2,3-triazole]
233 nM	63%	Cc1nc(-c2cc(-c3cccc(S(C)(=O)=O)c3)ccc2-n2cc(C(F)(F)F)nc2C)c(-c2cccc(OC(F)(F)C(F)(F)F)c2)o1 [Example 574, 2-methyl-4-(4-(2-methyl-4-(trifluoromethyl)-1H-imidazol-1-yl)-3′-(methylsulfonyl)-[1,1′-biphenyl]-3-yl)-5-(3-(perfluoroethoxy)phenyl)oxazole]
260 nM	89%	COC(=O)c1ccc(-c2cnnn2-c2cc(-c3cccc(S(C)(=O)=O)c3)ccc2-n2cc(C(F)(F)F)nc2C)cc1 [Example 82, methyl 4-(1-{3′-(methylsulfonyl)-4-[2-methyl-4-(trifluoromethyl)-1H-imidazol-1-yl]biphenyl-3-yl}-1H-1,2,3-triazol-5-yl)benzoate]
500 nM	69%	Cc1nc(C(F)(F)F)cn1-c1ccc(-c2cccc(S(C)(=O)=O)c2)cc1-n1nncc1-c1ccc(Cl)cc1Cl [Example 76, 5-(2,4-dichlorophenyl)-1-{3′-(methylsulfonyl)-4-[2-methyl-4-(trifluoromethyl)-1H-imidazol-1-yl]biphenyl-3-yl}-1H-1,2,3-triazole]
